Measurements reported in article PMC9414551 (Pharmaceuticals, 2022).

Tests used:
NR1-2A NMDAR [1] = target: T1, NR1-2A NMDAR (Homo sapiens, UniProt Q05586+Q12879); assay: cell-based; assay type: cell-based; parameters: host or cells: CHO (CHO-hNR1-h2A), tetracycline-induced expression
NR1-2D NMDAR [2] = target: T2, NR1-2D NMDAR (Homo sapiens, UniProt O15399+Q05586); assay: cell-based; assay type: cell-based; parameters: host or cells: CHO (CHO-hN1-h2D), tetracycline-induced expression
NR1-2C NMDAR [3] = target: T3, NR1-2C NMDAR (Homo sapiens, UniProt Q05586+Q14957); assay: cell-based; assay type: cell-based; parameters: host or cells: CHO (CHO-hN1-h2C), tetracycline-induced expression
NR1-2B NMDAR [4] = target: T4, NR1-2B NMDAR (Homo sapiens, UniProt Q05586+Q13224); assay: cell-based; assay type: cell-based; parameters: host or cells: CHO (CHO-hNR1-h2B), constitutive expression
NR1-2C NMDAR [5] = target: T3, NR1-2C NMDAR; assay: Whole-cell automated patch-clamp (QPatch) in 1 mM Mg2+; assay type: cell-based; parameters: host or cells: CHO (CHO-hN1-h2C), tetracycline-induced expression; conditions: 1 mM MgCl2, 10 μM L-glutamate, 10 μM glycine
Method: (§1) Data were obtained in automated patch-clamp platform. […] Statistical results of one-way analysis of variance (ANOVA) followed by Tukey’s multiple comparisons test also reported p < 0.05 (*), p < 0.01 (**), p < 0.001 (***), and p < 0.0001 (****). Glu is glutamate.
(§2) For QPatch experiments, cells were grown in T-flasks first at 37 °C, 5% CO2 for 3 to 4 h, then at 30 °C, 5% CO2 for 18 to 24 h in DMEM/F12 medium with added 500 μM ketamine and 10 μg/mL tetracycline (except for NR1-2B-CHO cells) without additional antibiotics. Cells were manually detached from the culture dish and automatically dispensed in QPatch wells with extracellular solution in the presence of 1 mM Mg^2+ and 500 μM ketamine.
(§3) Holding potential was −80 mV, and voltage protocol included a depolarizing 2-s step pulse to +60 mV to check the quality of the seal and cell NMDAR expression level, followed by a 2-s ramp-up to holding potential.

NR1-2D NMDAR [6] = target: T2, NR1-2D NMDAR; assay: as above; assay type: cell-based; parameters: host or cells: CHO (CHO-hN1-h2D), tetracycline-induced expression; conditions: 1 mM MgCl2, 10 μM L-glutamate, 10 μM glycine
Method: as §1, §2, §3

NR1-2B NMDAR [7] = target: T4, NR1-2B NMDAR; assay: as above; assay type: cell-based; parameters: host or cells: CHO (CHO-hNR1-h2B), constitutive expression; conditions: 1 mM MgCl2, 10 μM L-glutamate, 10 μM glycine
Method: as §1, §2, §3

NR1-2A NMDAR [8] = target: T1, NR1-2A NMDAR; assay: as above; assay type: cell-based; parameters: host or cells: CHO (CHO-hNR1-h2A), tetracycline-induced expression; conditions: 1 mM MgCl2, 10 μM L-glutamate, 10 μM glycine
Method: as §1, §2, §3

NMDAR = target: NMDAR; parameters: method as in Eurofins Panlabs Discovery Services Taiwan; conditions: assay parameter of the contract laboratory; ref Eurofins Panlabs Discovery Services Taiwan; read-out: Kd of the radioligand; cited from earlier work

T4 sequence (Q13224 27-1484, other chains not shown): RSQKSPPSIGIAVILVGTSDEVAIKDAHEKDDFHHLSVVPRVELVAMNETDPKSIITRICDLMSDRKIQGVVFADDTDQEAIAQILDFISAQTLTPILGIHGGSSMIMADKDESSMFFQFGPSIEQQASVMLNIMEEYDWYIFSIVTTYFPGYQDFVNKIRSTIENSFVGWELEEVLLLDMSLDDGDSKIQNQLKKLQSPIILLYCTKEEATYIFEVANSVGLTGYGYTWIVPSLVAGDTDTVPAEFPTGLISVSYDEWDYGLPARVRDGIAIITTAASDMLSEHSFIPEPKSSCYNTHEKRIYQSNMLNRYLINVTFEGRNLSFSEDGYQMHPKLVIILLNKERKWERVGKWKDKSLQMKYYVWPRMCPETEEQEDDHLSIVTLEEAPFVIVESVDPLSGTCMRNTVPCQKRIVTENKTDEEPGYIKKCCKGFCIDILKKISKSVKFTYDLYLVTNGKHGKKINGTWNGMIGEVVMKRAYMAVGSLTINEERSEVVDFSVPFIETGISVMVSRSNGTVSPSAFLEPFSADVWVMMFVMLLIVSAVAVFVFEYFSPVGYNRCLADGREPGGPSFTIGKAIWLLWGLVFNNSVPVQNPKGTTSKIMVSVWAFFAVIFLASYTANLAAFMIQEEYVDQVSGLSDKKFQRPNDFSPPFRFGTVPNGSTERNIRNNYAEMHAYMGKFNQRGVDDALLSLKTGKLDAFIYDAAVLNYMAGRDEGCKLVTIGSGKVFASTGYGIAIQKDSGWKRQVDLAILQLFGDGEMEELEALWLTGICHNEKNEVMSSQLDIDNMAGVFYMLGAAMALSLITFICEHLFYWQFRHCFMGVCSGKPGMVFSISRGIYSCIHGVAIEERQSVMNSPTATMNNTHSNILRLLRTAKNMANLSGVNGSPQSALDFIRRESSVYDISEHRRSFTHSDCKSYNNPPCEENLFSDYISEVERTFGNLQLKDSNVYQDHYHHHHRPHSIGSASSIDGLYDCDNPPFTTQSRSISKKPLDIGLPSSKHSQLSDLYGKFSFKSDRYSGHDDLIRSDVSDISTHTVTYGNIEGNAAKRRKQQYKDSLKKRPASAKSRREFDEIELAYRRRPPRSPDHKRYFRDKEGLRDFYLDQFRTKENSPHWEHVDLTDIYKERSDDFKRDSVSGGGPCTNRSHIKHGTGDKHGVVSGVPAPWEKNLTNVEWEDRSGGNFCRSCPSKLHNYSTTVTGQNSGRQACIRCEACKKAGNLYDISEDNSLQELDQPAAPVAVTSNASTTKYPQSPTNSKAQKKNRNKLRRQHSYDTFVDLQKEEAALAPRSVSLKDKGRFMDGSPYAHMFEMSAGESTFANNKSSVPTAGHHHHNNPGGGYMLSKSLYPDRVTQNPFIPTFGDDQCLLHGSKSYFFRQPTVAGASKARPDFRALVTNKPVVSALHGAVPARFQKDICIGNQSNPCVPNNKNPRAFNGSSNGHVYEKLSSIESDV
T1 sequence (Q12879 23-1464, other chains not shown): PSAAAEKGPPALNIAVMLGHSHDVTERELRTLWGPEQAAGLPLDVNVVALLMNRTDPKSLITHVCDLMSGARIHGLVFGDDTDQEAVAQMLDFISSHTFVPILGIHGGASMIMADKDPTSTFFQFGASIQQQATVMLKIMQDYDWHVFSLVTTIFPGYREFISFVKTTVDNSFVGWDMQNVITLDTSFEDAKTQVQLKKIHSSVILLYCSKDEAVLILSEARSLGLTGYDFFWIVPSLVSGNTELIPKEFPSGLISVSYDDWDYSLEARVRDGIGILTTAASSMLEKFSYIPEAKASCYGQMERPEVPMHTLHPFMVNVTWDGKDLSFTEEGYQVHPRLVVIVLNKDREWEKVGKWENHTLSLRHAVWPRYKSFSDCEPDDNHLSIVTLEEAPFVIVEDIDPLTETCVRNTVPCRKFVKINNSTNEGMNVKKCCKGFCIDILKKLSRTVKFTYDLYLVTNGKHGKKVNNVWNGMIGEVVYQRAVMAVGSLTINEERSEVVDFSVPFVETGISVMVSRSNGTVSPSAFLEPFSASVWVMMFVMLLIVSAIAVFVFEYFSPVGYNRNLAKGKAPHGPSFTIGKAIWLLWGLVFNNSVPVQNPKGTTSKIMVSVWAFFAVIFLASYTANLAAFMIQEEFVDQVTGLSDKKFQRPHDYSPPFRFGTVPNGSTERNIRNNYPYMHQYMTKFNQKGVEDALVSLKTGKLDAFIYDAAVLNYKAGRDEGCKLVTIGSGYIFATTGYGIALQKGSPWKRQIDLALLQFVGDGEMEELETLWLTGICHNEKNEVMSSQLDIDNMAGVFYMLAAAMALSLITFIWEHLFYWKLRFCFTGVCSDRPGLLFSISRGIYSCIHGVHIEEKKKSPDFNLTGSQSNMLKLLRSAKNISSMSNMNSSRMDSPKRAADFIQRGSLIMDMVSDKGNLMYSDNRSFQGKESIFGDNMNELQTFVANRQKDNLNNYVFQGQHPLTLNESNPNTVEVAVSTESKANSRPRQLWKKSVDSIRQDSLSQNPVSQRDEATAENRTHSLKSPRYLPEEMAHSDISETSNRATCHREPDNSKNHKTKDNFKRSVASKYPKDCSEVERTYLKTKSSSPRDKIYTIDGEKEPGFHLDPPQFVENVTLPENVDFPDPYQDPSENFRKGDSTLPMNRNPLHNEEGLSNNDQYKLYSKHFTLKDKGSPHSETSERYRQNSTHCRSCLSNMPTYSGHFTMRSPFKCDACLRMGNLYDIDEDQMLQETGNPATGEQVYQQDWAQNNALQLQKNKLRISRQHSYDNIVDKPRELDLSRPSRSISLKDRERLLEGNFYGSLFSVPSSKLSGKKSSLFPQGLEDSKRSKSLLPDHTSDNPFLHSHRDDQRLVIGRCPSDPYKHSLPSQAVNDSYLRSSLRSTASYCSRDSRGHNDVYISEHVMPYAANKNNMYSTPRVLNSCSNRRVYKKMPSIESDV
T2 sequence (O15399 28-1336, other chains not shown): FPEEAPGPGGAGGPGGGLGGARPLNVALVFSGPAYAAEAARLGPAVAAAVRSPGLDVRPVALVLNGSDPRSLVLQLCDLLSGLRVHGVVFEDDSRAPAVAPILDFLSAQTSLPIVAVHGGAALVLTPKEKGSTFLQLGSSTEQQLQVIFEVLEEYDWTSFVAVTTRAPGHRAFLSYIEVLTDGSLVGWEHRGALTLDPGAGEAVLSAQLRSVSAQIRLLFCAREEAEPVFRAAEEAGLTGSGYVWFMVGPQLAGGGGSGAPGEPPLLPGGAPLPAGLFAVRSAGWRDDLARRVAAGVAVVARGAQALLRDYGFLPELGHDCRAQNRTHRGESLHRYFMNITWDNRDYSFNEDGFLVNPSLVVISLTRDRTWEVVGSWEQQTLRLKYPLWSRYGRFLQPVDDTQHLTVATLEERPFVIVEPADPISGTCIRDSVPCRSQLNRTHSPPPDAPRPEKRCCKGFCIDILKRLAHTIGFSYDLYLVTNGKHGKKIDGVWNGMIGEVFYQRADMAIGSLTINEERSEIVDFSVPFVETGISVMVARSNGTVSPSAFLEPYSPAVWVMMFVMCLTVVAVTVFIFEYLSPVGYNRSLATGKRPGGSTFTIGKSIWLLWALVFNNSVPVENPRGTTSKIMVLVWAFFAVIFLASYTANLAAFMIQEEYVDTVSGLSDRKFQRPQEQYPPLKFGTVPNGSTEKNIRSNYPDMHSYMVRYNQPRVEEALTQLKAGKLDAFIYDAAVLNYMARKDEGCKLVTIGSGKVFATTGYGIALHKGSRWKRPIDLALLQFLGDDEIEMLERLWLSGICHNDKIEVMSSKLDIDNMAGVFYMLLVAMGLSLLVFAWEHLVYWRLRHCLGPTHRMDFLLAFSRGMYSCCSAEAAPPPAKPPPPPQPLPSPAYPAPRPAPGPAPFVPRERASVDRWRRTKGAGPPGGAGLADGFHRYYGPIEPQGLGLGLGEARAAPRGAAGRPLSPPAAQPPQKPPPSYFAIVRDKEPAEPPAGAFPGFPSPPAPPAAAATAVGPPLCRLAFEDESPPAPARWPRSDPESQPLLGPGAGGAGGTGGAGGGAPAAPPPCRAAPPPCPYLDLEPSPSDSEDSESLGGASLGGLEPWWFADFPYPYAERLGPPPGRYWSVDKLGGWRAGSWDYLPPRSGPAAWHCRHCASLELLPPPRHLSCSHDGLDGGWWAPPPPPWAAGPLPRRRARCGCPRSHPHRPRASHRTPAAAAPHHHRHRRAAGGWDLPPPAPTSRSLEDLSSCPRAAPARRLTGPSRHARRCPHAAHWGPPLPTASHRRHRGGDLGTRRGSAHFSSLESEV

## N[C@@H](CCC(=O)O)C(=O)O [L-glutamate]
NR1-2A NMDAR [1]
  L-glutamate Max. (maximal asymptote), alone: 106%
NR1-2D NMDAR [2]
  L-glutamate Max. (maximal asymptote), alone: 105%
NR1-2C NMDAR [3]
  L-glutamate Max. (maximal asymptote), alone: 106%
NR1-2B NMDAR [4]
  L-glutamate Max. (maximal asymptote), alone: 111%

## [Cl-].[Cl-].[Mg+2] [MgCl2]
NR1-2C NMDAR [5]
  current at −60 mV normalized to −30 mV current (100%): 64 ± 5.6%
NR1-2D NMDAR [6]
  current at −60 mV normalized to −30 mV current (100%): 55 ± 1.8%
NR1-2B NMDAR [7]
  current at −60 mV normalized to −30 mV current (100%): 26 ± 1.8%
NR1-2A NMDAR [8]
  current at −60 mV normalized to −30 mV current (100%): 24 ± 2.4%

## c1csc(C2(N3CCCCC3)CCCCC2)c1 [[^3H]TCP]
NMDAR
  Kd: 8.4 nM
